From patent US20200405868A1, “GEL-FORMING POLYPEPTIDES” (priority 2018, published 2020)
Where a SMILES comes first, the peptide text is derived from it. [ ]: non-standard residue; d: D form. The star is where a group is joined. Palmitoyl = CCCCCCCCCCCCCCCC(=O)*; AEEA = NCCOCCOCC(=O)O

Tests used:
[1] = target: T1, bradykinin receptor 2 (BDKRB2) (Homo sapiens, UniProt P30411); experiment: BDKRB2 arrestin assay (Discoverx), antagonistic; type: cell-based
T1 sequence (P30411 1-391): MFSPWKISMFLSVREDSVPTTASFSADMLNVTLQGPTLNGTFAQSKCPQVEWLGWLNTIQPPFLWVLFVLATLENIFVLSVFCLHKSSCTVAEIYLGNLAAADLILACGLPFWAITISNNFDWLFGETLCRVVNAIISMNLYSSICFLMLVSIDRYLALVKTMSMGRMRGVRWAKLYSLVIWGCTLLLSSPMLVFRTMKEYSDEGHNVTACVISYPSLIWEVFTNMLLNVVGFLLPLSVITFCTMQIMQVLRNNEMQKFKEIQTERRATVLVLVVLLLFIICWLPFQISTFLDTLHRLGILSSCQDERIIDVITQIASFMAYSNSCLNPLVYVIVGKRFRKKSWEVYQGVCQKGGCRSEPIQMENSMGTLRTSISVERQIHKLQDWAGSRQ
Protocol: For the Arrestin assays, PathHunter cell lines (Discoverx Inc.) were expanded from freezer stocks, and seeded in a total volume of 20 μL into white walled, 384-well microplates and incubated at 37 C for the appropriate time prior to testing. […] For antagonistic activity determination, cells were pre-incubated with antagonist followed by agonist challenge at the EC80 concentration. Intermediate dilution of sample stocks was performed to generate 5× sample in assay buffer, and 5 μL of 5× sample was added to cells and incubated at 37° C. or room temperature for 30 minutes. Vehicle concentration was 1%. Then, 5 μL of 6×EC80 agonist in assay buffer was added to the cells and incubated at 37 C or room temperature for 90 or 180 minutes.
Assay signal was generated through a single addition of 12.5 or 15 μL (50% v/v) of PathHunter Detection reagent cocktail, followed by an one hour incubation at room temperature. The microplates were read following signal generation with a PerkinElmer Envision™ instrument for chemiluminescent signal detection. The compound activity was analyzed using a CBIS data analysis suite (ChemInnovation, CA). […] For antagonistic activity assays, percentage inhibition was calculated using the following formula: % Inhibition=100%×(1−(mean RLU of test sample−mean RLU of vehicle control)/(mean RLU of EC80 control−mean RLU of vehicle control)).

[2] = Compound gel-forming ability in water (visual inspection, tube tapping assay, tilted tube assay); type: physicochemical; conditions: for gel formation at 11% w/w: 11% w/w in water; for gel formation at 20% w/w: 20% w/w in water; for gel formation in aqueous solution, 6% / propensity to form gels, chimeric or mutated polypeptides, 6%: 6% w/w;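 as to all read-outs here: peptides mixed with de-ionized water at about 22-25 °C, judged after 20 min by eye plus tube tapping (10 taps, moves counted) and 90° tilt mobility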
CRH receptor 2 (CRHR2) = target: T2, CRH receptor 2 (CRHR2) (Homo sapiens, UniProt Q13324); experiment: CRHR2 cAMP assay (Discoverx), agonistic; type: cell-based
T2 sequence (Q13324 1-411): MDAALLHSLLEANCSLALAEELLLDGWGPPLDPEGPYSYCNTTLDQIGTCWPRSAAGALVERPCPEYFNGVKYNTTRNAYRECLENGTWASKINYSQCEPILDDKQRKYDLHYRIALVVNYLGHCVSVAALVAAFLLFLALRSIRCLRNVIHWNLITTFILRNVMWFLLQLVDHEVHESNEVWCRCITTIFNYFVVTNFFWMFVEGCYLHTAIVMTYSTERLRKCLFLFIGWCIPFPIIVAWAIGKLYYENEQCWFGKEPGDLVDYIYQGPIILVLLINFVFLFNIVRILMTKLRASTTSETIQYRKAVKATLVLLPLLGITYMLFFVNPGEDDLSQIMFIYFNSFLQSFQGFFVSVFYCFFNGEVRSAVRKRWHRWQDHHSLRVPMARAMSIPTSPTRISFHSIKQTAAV
Protocol: (§1) The agonistic activities toward MC1R, MC4R, CRHR2, PTHR1, and OPRK1 were assyed with an MC1R cAMP assay, an MC4R cAMP assay, a CRHR2 cAMP assay, a PTHR1 cAMP assay and an OPRK1 cAMP assay from Discoverx Inc. (Fremont, Calif.), respectively. The antagonistic activities toward bradykinin receptor 2 (BDKRB2) and GnRH receptor (GnRHR or LHRHR) were assayed with a BDKRB2 arrestin assay and a GnRHR calcium flux assay from Discoverx, respectively.
(§2) For the analysis of Gs-coupled cAMP production, cAMP Hunter cell lines were expanded from freezer stocks, and cells were seeded in a total volume of 20 μL into white walled, 384-well microplates and incubated at 37 C for the appropriate time prior to testing. The cAMP modulation was determined using the DiscoverX HitHunter cAMP XS+ assay. For agonistic activity determination, cells were incubated with sample to induce response. Media was aspirated from cells and replaced with 15 μL 2:1 HBSS/10 mM Hepes: cAMP XS+ Ab reagent. Intermediate dilution of sample stocks was performed to generate 4× sample in assay buffer, and 5 μL of 4× sample was added to cells and incubated at 37 C or room temperature for 30 or 60 minutes. Vehicle concentration was 1%. The compound activity was analyzed using a CBIS data analysis suite (ChemInnovation, CA). For Gs-coupled agonistic assays, percentage activity is calculated using the following formula: % Activity=100%×(mean RLU of test sample−mean RLU of vehicle control)/(mean RLU of MAX control−mean RLU of vehicle control).

PTH receptor 1 (PTHR1) = target: T3, PTH receptor 1 (PTHR1) (Homo sapiens, UniProt Q03431); experiment: PTHR1 cAMP assay (Discoverx), agonistic; type: cell-based
T3 sequence (Q03431 27-593): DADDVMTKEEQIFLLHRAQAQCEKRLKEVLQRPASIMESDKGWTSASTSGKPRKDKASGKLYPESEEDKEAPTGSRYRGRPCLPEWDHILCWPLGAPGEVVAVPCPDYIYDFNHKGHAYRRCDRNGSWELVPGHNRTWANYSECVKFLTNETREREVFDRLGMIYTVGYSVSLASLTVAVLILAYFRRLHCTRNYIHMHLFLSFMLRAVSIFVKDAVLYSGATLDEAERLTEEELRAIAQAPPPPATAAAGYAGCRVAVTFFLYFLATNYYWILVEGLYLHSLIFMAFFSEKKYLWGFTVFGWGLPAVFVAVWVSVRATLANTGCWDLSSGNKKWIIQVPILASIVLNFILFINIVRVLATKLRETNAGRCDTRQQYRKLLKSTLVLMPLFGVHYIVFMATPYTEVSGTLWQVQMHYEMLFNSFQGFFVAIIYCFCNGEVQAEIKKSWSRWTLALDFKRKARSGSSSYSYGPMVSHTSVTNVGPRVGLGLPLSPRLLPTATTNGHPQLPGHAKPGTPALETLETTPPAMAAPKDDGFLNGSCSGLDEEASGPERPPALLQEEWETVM
Protocol: as §1
as §2, with “Intermediate dilution of sample stocks was performed to generate 4× sample in assay buffer, and 5 μL of 4× sample was added to cells and incubated at 37 C or room temperature for 30 or 60 minutes. Vehicle concentration was 1%.” left out

| Compound | Max Activity % of positive control [1] | gel formation at 11% w/w [2] | gel formation at 20% w/w [2] | gel formation in aqueous solution, 11% ([2]; Table 3, 11% w/w) | gel formation in aqueous solution, 20% ([2]; Table 3, 20% w/w) | Max Activity % of positive control (CRH receptor 2 (CRHR2)) | gel formation in aqueous solution, 6% ([2]; Table 3) | propensity to form gels, chimeric or mutated polypeptides, 6% ([2]; Table 5) | propensity to form gels, chimeric or mutated polypeptides, 11% ([2]; Table 5, 11% w/w) | Max Activity % of positive control (PTH receptor 1 (PTHR1)) | propensity to form gels, chimeric or mutated polypeptides, 20% ([2]; Table 5, 20% w/w) | further results |
| --- | --- | --- | --- | --- | --- | --- | --- | --- | --- | --- | --- | --- |
| N=C(N)NCCC[C@@H](N)C(=O)N[C@@H](CCCNC(=N)N)C(=O)N1CCC[C@H]1C(=O)N1C[C@H](O)C[C@H]1C(=O)NCC(=O)N[C@@H](Cc1cccs1)C(=O)N[C@@H](CO)C(=O)N1Cc2ccccc2C[C@@H]1C(=O)N1[C@H](C(=O)N[C@@H](CCCNC(=N)N)C(=O)O)C[C@@H]2CCCC[C@@H]21 [SEQ ID NO:32, (D-Arg)-Arg-Pro-Hyp-Gly-Thi-Ser-(D-Tic)-Oic-Arg, reference compound] | 100 % of positive control | does not form gel | does not form gel | AS/IS (AS/IS for aqueous solution or insoluble) | AS/IS (AS/IS for aqueous solution or insoluble) | – | – | – | – | – | – | gel formation at 30% w/w ([2]; 30% w/w in water): does not form gel; Physical property at 11% w/w ([2]; Table 1, 11% w/w in aqueous solution, room temperature): AS/IS; gel formation in aqueous solution, 30% ([2]; Table 3, 30% w/w): AS/IS (AS/IS for aqueous solution or insoluble); propensity to form gels, wild-type counterparts, 11% ([2]; Table 5, 11% w/w): AS/IS; propensity to form gels, wild-type counterparts, 20% ([2]; Table 5, 20% w/w): AS/IS |
| CCCCCCCCCCCCCCCC(=O)N[C@@H](CCCCN)C(=O)N[C@@H](CO)C(=O)N[C@@H](Cc1ccc(O)cc1)C(=O)N[C@@H](CO)C(=O)N[C@@H](CC(C)C)C(=O)N[C@@H](CC(=O)O)C(=O)N[C@H](C(=O)N1CCC[C@H]1C(=O)N[C@H](C(=O)N[C@@H](CC(N)=O)C(=O)N[C@H](C(=O)N[C@@H](CCSC)C(=O)N[C@@H](CC(N)=O)C(=O)N[C@@H](CC(C)C)C(=O)N[C@@H](CC(C)C)C(=O)N[C@@H](Cc1ccccc1)C(=O)N[C@@H](CC(N)=O)C(=O)N[C@H](C(=O)N[C@@H](C)C(=O)N[C@@H](CCCCN)C(=O)N[C@@H](C)C(=O)N[C@@H](CCCCN)C(=O)N[C@@H](CC(N)=O)C(=O)N[C@@H](CC(C)C)C(=O)N[C@@H](CCCNC(=N)N)C(=O)N[C@@H](C)C(=O)N[C@@H](CCC(N)=O)C(=O)N[C@@H](C)C(=O)N[C@@H](C)C(=O)N[C@@H](C)C(=O)N[C@@H](CC(N)=O)C(=O)N[C@@H](C)C(=O)N[C@@H](Cc1c[nH]cn1)C(=O)N[C@@H](CC(C)C)C(=O)N[C@@H](CCSC)C(=O)N[C@@H](C)C(=O)N[C@@H](CCC(N)=O)C(=O)N[C@H](C(N)=O)[C@@H](C)CC)[C@@H](C)CC)[C@@H](C)CC)[C@@H](C)O)C(C)C [SEQ ID NO:231] (Palmitoyl-KSYSLDVPTNIMNLLFNIAKAKNLRAQAAANAHLMAQI-NH2) | – | – | – | SS (SS for semisolid gel) | – | 78 % of positive control | SS (SS for semisolid gel) | SS (An ability to form semisolid gel is represented by an SS) | SS (An ability to form semisolid gel is represented by an SS) | – | – | EC50 (CRH receptor 2 (CRHR2)): 5.7 nM |
| CCCCCCCCCCCCCCCC(=O)N[C@@H](Cc1c[nH]cn1)C(=O)N[C@@H](CO)C(=O)N[C@@H](Cc1ccc(O)cc1)C(=O)N[C@@H](CO)C(=O)N[C@@H](CCC(=O)O)C(=O)N[C@H](C(=O)N[C@@H](CCC(N)=O)C(=O)N[C@@H](CC(C)C)C(=O)N[C@@H](CCSC)C(=O)N[C@@H](Cc1c[nH]cn1)C(=O)N[C@@H](CC(N)=O)C(=O)N[C@@H](CC(C)C)C(=O)NCC(=O)N[C@@H](CCCCN)C(=O)N[C@@H](Cc1c[nH]cn1)C(=O)N[C@@H](CC(C)C)C(=O)N[C@@H](CC(N)=O)C(=O)N[C@@H](CO)C(=O)N[C@@H](CCSC)C(=O)N[C@@H](CCC(=O)O)C(=O)N[C@@H](CCCNC(=N)N)C(=O)N[C@H](C(=O)N[C@@H](CCC(=O)O)C(=O)N[C@@H](Cc1c[nH]c2ccccc12)C(=O)N[C@@H](CC(C)C)C(=O)N[C@@H](CCCNC(=N)N)C(=O)N[C@@H](CCCCN)C(=O)N[C@@H](CCCCN)C(=O)N[C@@H](CC(C)C)C(=O)N[C@@H](CCC(N)=O)C(=O)N[C@@H](CC(=O)O)C(=O)N[C@H](C(=O)N[C@@H](Cc1c[nH]cn1)C(=O)N[C@@H](CC(N)=O)C(=O)N[C@@H](Cc1ccccc1)C(=O)O)C(C)C)C(C)C)[C@@H](C)CC [SEQ ID NO:232] (Palmitoyl-HSYSEIQLMHNLGKHLNSMERVEWLRKKLQDVHNF-OH; C-terminus assumed) | – | liquid gel | semisolid gel | – | SS (SS for semisolid gel) | – | – | – | – | 59 % of positive control | SS (An ability to form semisolid gel is represented by an SS) | – |
| CCCCCCCCCCCCCCCC(=O)N[C@@H](Cc1c[nH]cn1)C(=O)N[C@@H](CO)C(=O)N[C@@H](Cc1ccc(O)cc1)C(=O)N[C@H](CCCNC(=N)N)C(=O)N[C@@H](CCCNC(=N)N)C(=O)N1CCC[C@H]1C(=O)N1C[C@H](O)C[C@H]1C(=O)NCC(=O)N[C@@H](Cc1cccs1)C(=O)N[C@@H](CO)C(=O)N1Cc2ccccc2C[C@@H]1C(=O)N1[C@H](C(=O)N[C@@H](CCCNC(=N)N)C(N)=O)C[C@@H]2CCCC[C@@H]21 [SEQ ID NO:234, Pal-HSY-(D-Arg)-Arg-Pro-Hyp-Gly-Thi-Ser-(D-Tic)-Oic-Arg-NH2] | 112 % of positive control | – | semisolid gel | AS/IS (AS/IS for aqueous solution or insoluble) | SS (SS for semisolid gel) | – | AS/IS (AS/IS for aqueous solution or insoluble) | AS/IS | AS/IS | – | SS (An ability to form semisolid gel is represented by an SS) | IC50 ([1]; bradykinin-stimulated): 53.3 nM |
| PTH (1-34) [reference compound] | – | – | – | – | – | – | – | – | – | 101 % of positive control | – | – |
| Palmitoyl-SSPHSY[AEEA]IVLSLDVPIGLLQILLEQARARAAREQATTNARILARVGHC-NH2 [SEQ ID NO:230] | – | – | semisolid or liquid gel | AS/IS (AS/IS for aqueous solution or insoluble) | SS (SS for semisolid gel) | 100 % of positive control | – | – | AS/IS | – | SS (An ability to form semisolid gel is represented by an SS) | – |
